# Test results as given in EPA's ToxValDB 9.5.
# Values joined by “and” are separate entries in the source; they are usually repeats but may differ in a detail not shown here. Equal values may be shown once.
# Experiments:
# Rattus norvegicus [1] = conditions: oral
# Rattus norvegicus [2] = system: Rattus norvegicus
# Rattus norvegicus [3] = conditions: subchronic, oral, gavage, M/F
# Canidae = conditions: oral, Dog Other; for LEL / NOEL: chronic, diet, M/F
# Rattus norvegicus [4] = conditions: short-term; duration: 20 days; oral; diet; F; musculoskeletal
# Rattus norvegicus [5] = conditions: Hershberger
# Rattus norvegicus [6] = conditions: duration: 2 years, oral
# [7] = chronic, duration: 2 years, diet, M/F, increased kidney body weight ratio
# [8] = subchronic, duration: 90 days, diet, M/F, reduced hemoglobin concentration, lowered hematocrits, altered organ weight
# [9] = subchronic, M, increased liver-to-body weight ratio and hepatic microsomal enzyme induction
# [10] = subchronic, M, increased sgot and sgpt levels
# [11] = short-term, duration: 20 days, M/F, rachitic bone
# [12] = reproduction developmental, M/F, degenerative cardiomyopathy
# [13] = duration: 1 years, decreased prostate weight + Increased RBC Heinz bodies
# [14] = duration: 2 years, liver toxicity
# [15] = duration: 6 months, Organ weight changes (adrenal and kidney)
# [16] = duration: 2 years, liver and kidney effects, reduced body weight, mortality
# [17] = subchronic, M/F, hypoactivity and ataxia
# [18] = reproduction developmental, M/F, reduced mean body weight
structure (smiles),measurement,setting,value
CC(Cl)(Cl)C(=O)O [Dalapon],LEL,Rattus norvegicus [1]; [7],28.2 mg/kg-day
same,NOEL,Rattus norvegicus [1]; [7],8.45 mg/kg-day
same,NOEL,"Rattus norvegicus [2]; chronic, duration: 2 years, oral, diet, Kidney: Increased relative weight",8.45 mg/kg-day
CCCN(CCC)c1c([N+](=O)[O-])cc(C(C)C)cc1[N+](=O)[O-] [Isopropalin],LEL,Rattus norvegicus [1]; [8],72 mg/kg-day
same,NOEL,Rattus norvegicus [1]; [8],15 mg/kg-day
same,NOEL,"Rattus norvegicus [2]; subchronic, duration: 90 days, oral, diet, Blood: Hematological effects + Organs, unspecified: Altered weights",15 mg/kg-day
"Brc1ccc(Br)c(Br)c1 [1,2,4-Tribromobenzene]",LOAEL,Rattus norvegicus [1]; [9],10 mg/kg-day
same,NOAEL,Rattus norvegicus [1]; [9],5 mg/kg-day
same,NOAEL,"Rattus norvegicus [2]; subchronic, duration: 45 days, oral, diet, Liver: Altered weight + Liver: Enzyme induction",5 mg/kg-day
NC1CCCCC1 [Cyclohexylamine],LOAEL,"Rattus norvegicus [1]; chronic, M, testicular damage",60 mg/kg-day
same,NOAEL,"Rattus norvegicus [1]; chronic, M, testicular damage",18 mg/kg-day
same,NOAEL,"Rattus norvegicus [2]; subchronic, duration: 90 days, oral, diet, Testis: Decreased weight + Whole body: Decreased weight gain",30 mg/kg-day
C=C(C)C#N [Methacrylonitrile],NOEL,"Rattus norvegicus [3]; Fischer 344, Deaths + Clinical Observation: Lethargy Lacrimation, tremors Convulsions Ataxia Abnormalbreathing + Body Weight Changes: decrease + …",< 7.5 mg/kg-day
same,LOAEL,Canidae; [10],24 mg/m3
same,NOAEL,Canidae; [10],9 mg/m3
[Sr] [Strontium],LOAEL,Rattus norvegicus [1]; [11],380 mg/kg-day
same,NOAEL,Rattus norvegicus [1]; [11],190 mg/kg-day
same,NOAEL,Rattus norvegicus [4],140 mg/kg-day
same,NOAEL,"Rattus norvegicus [2]; short-term, duration: 20 days, oral, drinking water, Bone: Rachitic changes",190 mg/kg-day
FB(F)F [Boron trifluoride],NOAEL,"Rattus norvegicus [2]; subchronic, duration: 13 weeks, inhalation, intermittent, Kidney: Necrosis",6 mg/m3
CCCN(CCC)C(=O)SCC [EPTC],LEL,Rattus norvegicus [1]; [12],10 mg/kg-day
same,NOEL,Rattus norvegicus [1]; [12],2.5 mg/kg-day
same,NOEL,"Rattus norvegicus [5]; duration: 10 days, oral, gavage, Sprague-Dawley, anti-androgenic + no effect on PPS, AST or thyroid / decreasing trend significant for LABC",125 mg/kg-day
same,NOEL,"Rattus norvegicus [2]; reproduction developmental, oral, diet, Heart: Degenerative cardiomyopathy",2.5 mg/kg-day
COc1cc2c(c3oc(=O)c4c(c13)CCC4=O)[C@]1(O)C=CO[C@@H]1O2 [Aflatoxin M1],NOEL,"Rattus norvegicus [6]; chronic, diet, M, Fischer 344, Carcinogenicity",0.1 mg
CC(C)NC(=O)N1CC(=O)N(c2cc(Cl)cc(Cl)c2)C1=O,LEL,Canidae; [13],15 mg/kg-day
same,NOEL,Canidae; [13],4.2 mg/kg-day
CN(C)C(=O)C(c1ccccc1)c1ccccc1 [Diphenamid],LEL,Canidae; [14],10 mg/kg-day
same,NOEL,Canidae; [14],3 mg/kg-day
C=CC1(C)OC(=O)N(c2cc(Cl)cc(Cl)c2)C1=O (stereo not given) [Vinclozolin],NOEL,"Rattus norvegicus [3]; Sprague-Dawley, Body Weight Changes: decrease + Blood Chemistry: BUN increase, Cho increase, Glu increase, TSH increase, T4 decrease, , LH increase, , …",< 3.12 mg/kg-day
same,LEL,Canidae; [15],7.5 mg/kg-day
same,NOEL,Canidae; [15],2.5 mg/kg-day
same,NOEL,"Rattus norvegicus [5]; duration: 7 days, injection, subcutaneous, Wistar, Neither + significant delay in PPS and AST / epididymal wt reduced at 30 mg/kg / serum LH decreased at 10 mg/kg / increase in …",30 mg/kg-day
same,NOEL,"Rattus norvegicus [5]; duration: 10 days, oral, gavage, Wistar, active + Antiandrogenic + anti-androgenic + ISR significant delay in PPS at 10 mg/kg / Monossori et al. significant delay in PPS and AST…",30 mg/kg-day and 10 mg/kg-day
same,LOEL,"Rattus norvegicus [5]; duration: 10 days, oral, gavage, wistar, active + Antiandrogenic + anti-androgenic + ISR significant delay in PPS at 10 mg/kg / Monossori et al. significant delay in PPS and AST…",10 mg/kg-day and 30 mg/kg-day
[PH]=[Zn].[PH]=[Zn].[Zn] [Zinc phosphide (Zn3P2)],LOAEL,"Rattus norvegicus [1]; subchronic, F, reduced food intake and body weight",3.48 mg/kg-day
same,LOAEL,"Rattus norvegicus [2]; subchronic, duration: 13 weeks, oral, diet, Whole body: Decreased food intake + Whole body: Decreased weight",3.48 mg/kg-day
CCCN(CC1CC1)c1c([N+](=O)[O-])cc(C(F)(F)F)cc1[N+](=O)[O-] [Profluralin],NOEL,"Rattus norvegicus [2]; subchronic, oral, diet, None Observed",3 mg/kg-day
CSc1nnc(C(C)(C)C)c(=O)n1N [Metribuzin],LEL,Canidae; [16],37.5 mg/kg-day
same,NOEL,Canidae; [16],2.5 mg/kg-day
same,NOEL,"Rattus norvegicus [5]; duration: 10 days, oral, gavage, Sprague-Dawley, inactive + Negative + Negative + neither + negative",120 mg/kg-day
CCCCO [1-Butanol],LOAEL,Rattus norvegicus [1]; [17],500 mg/kg-day
same,NOAEL,Rattus norvegicus [1]; [17],125 mg/kg-day
same,NOAEL,"Rattus norvegicus [2]; subchronic, duration: 13 weeks, oral, gavage, Central nervous system: Ataxia + Central nervous system: Hypoactivity",125 mg/kg-day
Cc1cc(C(C#N)c2ccc(Cl)cc2)c(Cl)cc1NC(=O)c1cc(I)cc(I)c1O (stereo not given) [Closantel],NOEL,"Rattus norvegicus [6]; chronic, diet, M/F, Wistar, Increased incidences of sperm granulomas in the epididymes of male rats",2.5 mg/kg-day
same,NOEL,"Rattus norvegicus [6]; dietary / carcinogenicity, feed, M/F, Wistar, Increased incidences of sperm granulomas in the epididymes of male rats",2.5 mg/kg-day
O=C1C2CC=CCC2C(=O)N1SC(Cl)(Cl)Cl (stereo not given) [Captan],LEL,Rattus norvegicus [1]; [18],25 mg/kg-day
same,NOEL,Rattus norvegicus [1]; [18],12.5 mg/kg-day
same,NOEL,"Rattus norvegicus [2]; subchronic, oral, diet, Whole body: Decreased weight",12.5 mg/kg-day
[O]=[Sb][O][Sb](=[O])=[O] [Antimony oxide (Sb2O4)],LOAEL,"Rattus norvegicus [2]; chronic, oral, drinking water, Blood: Altered chemistries + Whole body: Increased mortality",0.44 mg/kg-day
